Molecular target: T1, γ-secretase (Homo sapiens, UniProt P49768)
T1 construct: endogenous in cells; host or cells: HeLa cells
Test: γ-secretase luciferase reporter assay (Gal4VP16 inducer constructs)
Format: cell-based
Set-up: dose or concentration left out as unconfirmed
Conditions: lysed after 16 hrs; for nuclear translocation of the inducer fragment (luciferase activity), APP: APP-Gal4VP16 inducer in Hela cells; for nuclear translocation of the inducer fragment (luciferase activity), Notch: NotchΔE-Gal4VP16 inducer in Hela cells
Description: In wild-type hippocampal neurons, TLN localizes to the plasmalemma whereas in 30% of PS1−/− neurons, TLN additionally accumulates in large somatic structures, the identity of which remained elusive (Annaert et al., 2001). […] Therefore we tested whether TLN is a γ-secretase substrate. In 15 day old PS1−/− hippocampal cultures we could not detect any TLN C-terminal fragment (CTF) as apposed to APP-CTF that readily accumulate. Even upon Semliki Forest Virus (SFV)-induced overexpression, no TLN-CTF was detected. Since no putative mechanism of shedding of the TLN ectodomain is known, we generated a TLNΔE that could serve as a potential γ-secretase substrate. No intracellular domain fragments were however detected indicating the absence of γ-secretase cleavage. […] Release of a potential intracellular domain of TLN can be measured via the activity of luciferase. […] To investigate whether the TLN transmembrane domain could be a γ-secretase substrate in the context of the APP protein, we swapped the transmembrane regions of TLN and APP to create an APP/TLNTMR-chimaera. Even in this case no activity could be detected. Therefore we conclude that TLN is most likely not a γ-secretase substratum.
pSFV constructs encoding human APP, murine TLN and TLNΔE have been described (Annaert et al., 2001). APP and NotchΔE were cloned into the EcoRV site in front of the Gal4VP16 sequence in pIPAdApt vector. A construct encoding 10 aa of the ectodomain, the transmembrane and cytosolic domains of TLN was obtained by PCR and ligated in pGEMT containing the TLN signal peptide (SP). SP-TLNΔE was next cloned into pIPAdApt and GAL 4VP16 was inserted resulting in a pIPAdApt-SP-TLNΔE-Gal4-VP16 construct. For the APP/TLNTMR chimaera, the coding region for APP-TMR was replaced by a PCR fragment encoding the TLN-TMR. Luciferase assay. Hela cells were transfected with 200 ng pFRluc plasmid (UAS-responsive luciferase construct, Stratagene) and 200 ng inducer plasmid using Fugene ([…]) and after 16 hrs lysed and assayed (Victor2, PerkinElmer).

Row | nuclear translocation of the inducer fragment (luciferase activity), APP | nuclear translocation of the inducer fragment (luciferase activity), Notch | SMILES
1 | strongly inhibited | strongly inhibited | C[C@H](NC(=O)Cc1cc(F)cc(F)c1)C(=O)N[C@H](C(=O)OC(C)(C)C)c1ccccc1 [DAPT]
2 | strongly inhibited | strongly inhibited | CC(C)C[C@H](NC(=O)[C@H](Cc1ccccc1)C[C@@H](O)[C@H](Cc1ccccc1)NC(=O)OC(C)(C)C)C(=O)N[C@@H](Cc1ccccc1)C(N)=O [L685,458]

— patent publication US20080057054A1, “Modulation of Phagocytosis in Neurons” (Vlaams Interuniversitair Instituut Voor Biotechnol, priority 2004, published 2008)
